For experiment [1], the system named is CCRF-CEM. As to the kind of experiment: The compound was evaluated for percent reduction of H2O2-induced H2DCFDA fluorescence in human CEM T-cells. Also on record: concentration or dose not given beside the values. Type of experiment: functional.
In experiment [2] the test system is NALM-6. Briefly: The compound was evaluated for percent reduction of H2O2-induced H2DCFDA fluorescence in NALM-6-B-cells. Type of experiment: functional, Homo sapiens. Details: concentration or dose not given beside the values.
Experiment [3] is described as follows: Antioxidant activity was evaluated by measuring the inhibition of oxidation of ABTS to ABTS+ by metmyoglobin in the presence of H2O2. Format: functional.
The target of experiment [4] is Human immunodeficiency virus type 1 reverse transcriptase (Human immunodeficiency virus 1, UniProt Q72547). Briefly: Inhibition of recombinant HIV-1 reverse transcriptase.

As to `COc1ccc(OC)c(CCNC(=S)Nc2ccc(Br)cn2)c1`, the Reduction in experiment [1] is 29.4%; in experiment [2], 11.8%. The EC50 (as a rule, the concentration giving half of the maximal effect) in experiment [3] was 89 µM.

For `S=C(NCCc1ccccc1)Nc1ccc(Br)cn1`, the Reduction in experiment [1] was 32.1%; in experiment [2], 37.1%. Moreover, the half-maximal inhibitory concentration (IC50) (as a rule, the point on the concentration scale where inhibition reaches its midpoint) in experiment [4] amounted to 1300 nM. In addition, in experiment [3], the EC50 amounted to 98 µM.

For the compound `COc1cccc(CC/N=C(\S)Nc2ccc(Br)cn2)c1`, the Reduction is listed as 19.7% in experiment [1] and 30.4% in experiment [2]. Besides, the IC50 in experiment [4] was 400 nM. The concentration giving a half-maximal response (EC50) in experiment [3] was 90 µM.

As to `Fc1ccc(CC/N=C(\S)Nc2ccc(Br)cn2)cc1`, the figures for the Reduction in experiment [1] and in experiment [2] were 13% and 2%, respectively. In addition, in experiment [3], the half-maximal effective concentration (EC50) came to 89 µM.

`COc1ccccc1CC/N=C(\S)Nc1ccc(Br)cn1`: the Reduction in experiment [1] worked out at 72.3%; in experiment [2] it was 94.2%. Besides, in experiment [4], the IC50 came out at 1000 nM. The half-maximal effective concentration (EC50) in experiment [3] was found to be 79 µM.

Consider `COc1ccc(OC)c(CC/N=C(/Nc2ccc(Br)cn2)SCc2ccccc2)c1`, for which the 50% inhibitory concentration (IC50) in experiment [4] is more than 100000 nM. The concentration for a half-maximal effect (EC50) in experiment [3] is more than 1000 µM.

For `COc1ccc(CC/N=C(\S)Nc2ccc(Br)cn2)cc1`, the Reduction amounted to 21.4% in experiment [1] and 0% in experiment [2]. For the same compound, the concentration for half-maximal inhibition (IC50) in experiment [4] stood at 900 nM. The half-maximal effective concentration (EC50) in experiment [3] is 176 µM.

In the case of `Cc1cn([C@H]2C[C@H](N=[N+]=[N-])[C@@H](CO)O2)c(=O)[nH]c1=O` [ZIDOVUDINE], the IC50 in experiment [4] was more than 100000 nM. Besides, in experiment [3], the EC50 is more than 1000 µM.

Regarding `S=C(NCCc1ccccc1Cl)Nc1ccc(Br)cn1`, the values for the Reduction in experiment [1] and in experiment [2] were 56.3% and 32%, respectively. Besides, the concentration for a half-maximal effect (EC50) in experiment [3] is 75 µM.

For `Fc1ccccc1CC/N=C(\S)Nc1ccc(Br)cn1`, the Reduction in experiment [1] is on record as 47%. The EC50 in experiment [3] amounted to 109 µM.

Consider `Fc1cccc(CC/N=C(\S)Nc2ccc(Br)cn2)c1`, for which, in experiment [1], the Reduction was found to be 45%. Besides, in experiment [3], the EC50 turned out to be 100 µM.

`Fc1ccccc1CC/N=C(/Nc1ccc(Br)cn1)SCc1ccccc1`: the IC50 in experiment [4] is more than 100000 nM. Besides, in experiment [3], the concentration giving a half-maximal response (EC50) is more than 1000 µM.

On to VITAMIN E, for which, in experiment [3], the EC50 came out at 377 µM.

Consider `CS/C(=N\CCc1ccccc1Cl)Nc1ccc(Br)cn1`, for which the IC50 in experiment [4] is more than 100000 nM. Further, in experiment [3], the concentration for a half-maximal effect (EC50) is more than 1000 µM.

On to `Clc1ccccc1CC/N=C(/Nc1ccc(Br)cn1)SCc1ccccc1`, for which the IC50 in experiment [4] was more than 100000 nM. In addition, the EC50 in experiment [3] was more than 1000 µM.

As to `CCCOC(=O)c1cc(O)c(O)c(O)c1` [PROPYL GALLATE], the concentration giving a half-maximal response (EC50) in experiment [3] is 84 µM.
